According to PubChem BioAssay AID2060620 (Molecular Pharmacology Branch, DTP, NCI, 2025):
“And” between values parts separate entries of the source, which are not always exact repeats. Equal values may be shown once. Blank lines part the entries; values can stand above or below the molecule they belong to.

Tested on: 328373-195-R-J1-PDC complex spheroids, viability % test/control
Assay: Anticancer human tumor 328373-195-R-J1-PDC patient-derived head and neck squamous carcinoma cell line growth inhibition [CLK]
Conditions: for viability, T/C: stronger effect = lower value
Method in brief: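 Patient-derived tumor cells grown as complex spheroids with HUVEC endothelial cells and mesenchymal stem cells, treated with drug combinations. Concentrations descend in half-log steps from near clinical Cmax, or from 10 microM if Cmax unknown.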

[1] = curve of first compound, second compound 0.0316 µM
[2] = curve of first compound, second compound 0.1 µM
[3] = curve of first compound, second compound 0.316 µM
[4] = curve of first compound, second compound 1 µM
[5] = curve of first compound, second compound 3.16 µM
[6] = curve of first compound, second compound 10 µM
[7] = second compound 0.0316 µM, first compound 0.0316 µM
[8] = second compound 0.0316 µM, first compound 0.1 µM
[9] = second compound 0.0316 µM, first compound 0.316 µM
[10] = second compound 0.0316 µM, first compound 1 µM
[11] = second compound 0.0316 µM, first compound 3.16 µM
[12] = second compound 0.0316 µM, first compound 10 µM
[13] = second compound 0.1 µM, first compound 0.0316 µM
[14] = second compound 0.1 µM, first compound 0.1 µM
[15] = second compound 0.1 µM, first compound 0.316 µM
[16] = second compound 0.1 µM, first compound 1 µM
[17] = second compound 0.1 µM, first compound 3.16 µM
[18] = second compound 0.1 µM, first compound 10 µM
[19] = second compound 0.316 µM, first compound 0.0316 µM
[20] = second compound 0.316 µM, first compound 0.1 µM
[21] = second compound 0.316 µM, first compound 0.316 µM
[22] = second compound 0.316 µM, first compound 1 µM
[23] = second compound 0.316 µM, first compound 3.16 µM
[24] = second compound 0.316 µM, first compound 10 µM
[25] = second compound 1 µM, first compound 0.0316 µM
[26] = second compound 1 µM, first compound 0.1 µM
[27] = second compound 1 µM, first compound 0.316 µM
[28] = second compound 1 µM, first compound 1 µM
[29] = second compound 1 µM, first compound 3.16 µM
[30] = second compound 1 µM, first compound 10 µM
[31] = second compound 3.16 µM, first compound 0.0316 µM
[32] = second compound 3.16 µM, first compound 0.1 µM
[33] = second compound 3.16 µM, first compound 0.316 µM
[34] = second compound 3.16 µM, first compound 1 µM
[35] = second compound 3.16 µM, first compound 3.16 µM
[36] = second compound 3.16 µM, first compound 10 µM
[37] = second compound 10 µM, first compound 0.0316 µM
[38] = second compound 10 µM, first compound 0.1 µM
[39] = second compound 10 µM, first compound 0.316 µM
[40] = second compound 10 µM, first compound 1 µM
[41] = second compound 10 µM, first compound 3.16 µM
[42] = second compound 10 µM, first compound 10 µM
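Note: spheroids exposed to the agents for 7 days.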

Structure (SMILES): Nc1ccn(C2OC(CO)C(O)C2(F)F)c(=O)n1 (stereo not drawn) + CN1CCN(c2cc(C(=O)Nc3cc4cc(-c5cnn(C)c5)ccc4cn3)ccn2)CC1
IC50 [1]: < 0.0316 µM
IC50 [2]: < 0.0316 µM
IC50 [3]: < 0.0316 µM
IC50 [4]: < 0.0316 µM
IC50 [5]: < 0.0316 µM
IC50 [6]: < 0.0316 µM
viability, T/C [7]: 3.79%
viability, T/C [8]: 2.43%
viability, T/C [9]: 4.26%
viability, T/C [10]: 2.86%
viability, T/C [11]: 2.91%
viability, T/C [12]: 3.08%
viability, T/C [13]: 4.42%
viability, T/C [14]: 3.79%
viability, T/C [15]: 4.8%
viability, T/C [16]: 3.59%
viability, T/C [17]: 3.13%
viability, T/C [18]: 4.21%
viability, T/C [19]: 4.28%
viability, T/C [20]: 2.41%
viability, T/C [21]: 3.74%
viability, T/C [22]: 1.82%
viability, T/C [23]: 1.62%
viability, T/C [24]: 5.1%
viability, T/C [25]: 0.09%
viability, T/C [26]: 1.02%
viability, T/C [27]: 2.83%
viability, T/C [28]: 0.09%
viability, T/C [29]: 2.43%
viability, T/C [30]: 0.07%
viability, T/C [31]: 1.17%
viability, T/C [32]: 1.23%
viability, T/C [33]: 0.12%
viability, T/C [34]: 1.22%
viability, T/C [35]: 0.16%
viability, T/C [36]: 0.38%
viability, T/C [37]: 2.37%
viability, T/C [38]: 0.17%
viability, T/C [39]: 0.7%
viability, T/C [40]: 0.17%
viability, T/C [41]: 1.04%
viability, T/C [42]: 0.35%

IC50 [1]: > 10 µM
IC50 [2]: < 0.0316 µM
IC50 [3]: < 0.0316 µM
IC50 [4]: < 0.0316 µM
IC50 [5]: < 0.0316 µM
IC50 [6]: < 0.0316 µM
Structure (SMILES): CC(CO)NC(=O)c1cc(-c2ccc(Cl)cc2)nn(-c2cnn(C)c2)c1=O (stereo not drawn) + CNC(=O)c1ccc(Nc2nc(OC3CCCC3)c3c(-c4ccc5nc(C)oc5c4)c[nH]c3n2)c(OC)c1
viability, T/C [7]: 76.2%
viability, T/C [8]: 80.8%
viability, T/C [9]: 73%
viability, T/C [10]: 90.8%
viability, T/C [11]: 73.6%
viability, T/C [12]: 62.9%
viability, T/C [13]: 16.1%
viability, T/C [14]: 12.2%
viability, T/C [15]: 11.9%
viability, T/C [16]: 14.1%
viability, T/C [17]: 16.1%
viability, T/C [18]: 12.8%
viability, T/C [19]: 10.9%
viability, T/C [20]: 10.5%
viability, T/C [21]: 11.2%
viability, T/C [22]: 11.8%
viability, T/C [23]: 11.4%
viability, T/C [24]: 12%
viability, T/C [25]: 8.66%
viability, T/C [26]: 9.73%
viability, T/C [27]: 9.96%
viability, T/C [28]: 10.2%
viability, T/C [29]: 9.14%
viability, T/C [30]: 8.61%
viability, T/C [31]: 13.6%
viability, T/C [32]: 10.9%
viability, T/C [33]: 8.97%
viability, T/C [34]: 10.1%
viability, T/C [35]: 12.7%
viability, T/C [36]: 10.7%
viability, T/C [37]: 12.9%
viability, T/C [38]: 9.53%
viability, T/C [39]: 11.4%
viability, T/C [40]: 12.1%
viability, T/C [41]: 13.2%
viability, T/C [42]: 11.7%

IC50 (curve of compound): < 0.0316 µM
Structure (SMILES): CC(=O)O[C@H]1C(=O)[C@@]2(C)[C@H]([C@H](OC(=O)c3ccccc3)[C@]3(O)C[C@H](OC(=O)[C@H](O)[C@@H](NC(=O)c4ccccc4)c4ccccc4)C(C)=C1C3(C)C)[C@]1(OC(C)=O)CO[C@@H]1C[C@@H]2O
viability, T/C (compound 0.0316 µM): 10.2% and 4.45%
viability, T/C (compound 0.1 µM): 5.56% and 4.34%
viability, T/C (compound 0.316 µM): 5.87% and 5.98%
viability, T/C (compound 1 µM): 10.8% and 8.33%
viability, T/C (compound 3.16 µM): 14.6% and 9.57%
viability, T/C (compound 10 µM): 14.7% and 10.1%

IC50 (curve of compound): 0.0211 µM and 0.0198 µM
Structure (SMILES): NC(=O)C(=Cn1cnc(-c2cc(C(F)(F)F)cc(C(F)(F)F)c2)n1)c1cncnc1
viability, T/C (compound 0.00949 µM): 76.3% and 71.8%
viability, T/C (compound 0.03 µM): 38.3% and 37.8%
viability, T/C (compound 0.0949 µM): 2.22% and 0.66%
viability, T/C (compound 0.3 µM): 1.05% and 0.37%
viability, T/C (compound 0.949 µM): 0.16% and 0.11%
viability, T/C (compound 3 µM): 1.51% and 0.06%
